Laboratory results published in ChEMBL document CHEMBL5543158, “Design of Evodiamine-Glucose Conjugates with Improved In Vivo Antitumor Activity” (J Med Chem, 2024).
Converted amounts (≈) assume the structure as drawn.

Assay: Solubility of the compound in double distilled water measured upto 30 mins by UV-vis spectrophotometry
Type: physicochemical

solubility at 0.5 h: 2020 µg/mL (≈ 3.16 mM)
SMILES: CN1c2ccc(F)cc2C(=O)N2CCc3c([nH]c4ccc(OCc5cn(CCCO[C@@H]6O[C@H](CO)[C@@H](O)[C@H](O)[C@H]6O)nn5)cc34)[C@H]21
